# Results reported in ChEMBL document CHEMBL1201862, “PubChem BioAssay data set” (2004).
# Active and inactive are the calls of the source.
# Legend:
# cells = type: functional
# [1] = biological target: T1, Kappa-type opioid receptor (Homo sapiens, UniProt P41145); type: functional
# Fatty acid synthase [2] = biological target: T2, Fatty acid synthase (Homo sapiens, UniProt P49327); experiment: FAS thioesterase domain inhibitors, dose response, biochemical, kinetic fluorescence intensity (AID 624326); type: functional;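 also: rate of fluorescence rise from hydrolysis of a fluorogenic O-methyl fluorescein ester substrate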
# [3] = control 3'UTR Renilla luciferase suppression, dose response, counter-screen for Shn3 inhibitor project, cell-based, Clone20-Shn3RL, cherry-picked (AID 624133); type: functional
# [4] = biological target: T3, Delta-type opioid receptor (Homo sapiens, UniProt P41143); experiment: HTS Image-Based Screen for Antagonists of the DOR Receptor. [Related pubchem assays (depositor defined):AID1777, AID1785, AID1786, AID2133]; type: functional
# CHO = experiment: cytotoxicity in TLR9-MyD88 CHO cells, dose response, cytotoxicity control for TLR9-MyD88 binding inhibitor project, cell-based, luminescence (AID 588339); type: functional, hamster; conditions: Cricetulus griseus;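 also: CHO cells stably coexpressing TLR9 and MyD88 fusions from primary screen; compound exposure lasted 48 hours before viability readout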
# [5] = biological target: T4, Bifunctional protein GlmU (Mycobacterium tuberculosis, UniProt P9WMN3); experiment: Inhibitors of Mycobacterial Glucosamine-1-phosphate acetyl transferase (GlmU). Secondary screen.; set-up: species or system Mycobacterium tuberculosis H37Rv
# T4 sequence (P9WMN3 whole entry): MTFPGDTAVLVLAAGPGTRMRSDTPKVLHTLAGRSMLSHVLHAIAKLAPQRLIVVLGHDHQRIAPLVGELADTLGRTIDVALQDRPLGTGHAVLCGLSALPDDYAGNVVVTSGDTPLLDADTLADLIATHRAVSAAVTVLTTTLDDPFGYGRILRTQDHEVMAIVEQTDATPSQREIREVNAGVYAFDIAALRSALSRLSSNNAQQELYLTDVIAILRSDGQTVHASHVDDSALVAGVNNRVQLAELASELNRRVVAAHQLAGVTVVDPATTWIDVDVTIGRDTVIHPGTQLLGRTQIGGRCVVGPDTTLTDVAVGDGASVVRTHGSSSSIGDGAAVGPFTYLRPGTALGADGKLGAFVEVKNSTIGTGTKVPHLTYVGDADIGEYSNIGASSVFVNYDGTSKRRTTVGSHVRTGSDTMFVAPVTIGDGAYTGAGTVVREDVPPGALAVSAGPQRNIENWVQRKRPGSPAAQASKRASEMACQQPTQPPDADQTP
# Fatty acid synthase [6] = biological target: T2, Fatty acid synthase; experiment: FAS thioesterase domain inhibitors, dose response, biochemical, endpoint fluorescence intensity, uHTS hits (AID 624327); type: functional;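 also: fluorescence from hydrolysis of an O-methyl fluorescein acyl ester substrate by the enzyme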
# Beta Lactamase = Beta Lactamase (Pseudomonas aeruginosa, UniProt Q932Y6); experiment: beta-lactamase reporter inhibitor potency, dose response, artefact control for TLR9-MyD88 binding inhibitor project, BLA reporter cells, FRET fluorescence (AID 588341); type: cell-based;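 also: cell based assay in CHO-K1 cells stably expressing beta-lactamase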
# [7] = biological target: T1, Kappa-type opioid receptor; type: functional; remark: listed apart in the source
# [8] = HepG2 cell cytotoxicity, dose response, cytotoxicity control for non-replicating M. tuberculosis project (AID 489018); type: functional; conditions: Mycobacterium tuberculosis
# Mu-type opioid receptor = Mu-type opioid receptor (Homo sapiens, UniProt P35372); experiment: HTS Image-Based Screen for Agonists of the MOR Receptor. [Related pubchem assays (depositor defined):AID1777, AID1785, AID1786, AID2133]; type: functional;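 also: imaging of beta-arrestin GFP recruitment into spots after receptor activation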
# [9] = Vero E6 cell cytotoxicity, dose response, cytotoxicity control for non-replicating M. tuberculosis project, secondary assay (AID 492998); type: functional, VeroE6; conditions: Vero C1008
# [10] = growth suppression of beta-catenin-knockout colon cells, dose response, cell-based, HCT116, human colon tumor (AID 1045); type: functional;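 also: HCT116 colon tumor cells with beta catenin knocked out; cells exposed to compound for 60 hours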
# [11] = HepG2 cell cytotoxicity, dose response, cytotoxicity control for Shn3 inhibitor project, CellTiter-Glo, cherry-picked (AID 624134); type: functional, cell-based
# [12] = growth suppression of PTEN-null colon cells, dose response, cell-based, HCT116 PTEN knockout (AID 1047); type: functional;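 also: HCT116 colon tumor cells with PTEN knocked out; cells exposed to compound for 60 hours before readout; potency for loss of cell viability measured by luminescence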
# Beta-galactosidase = Beta-galactosidase (Escherichia coli, UniProt Q8VNN2); type: functional
# [13] = cytotoxicity toward NIH3T3 fibroblasts, dose response, counter-screen, cell-based, ATP luminescence, mouse fibroblasts (AID 2010); type: functional;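 also: cells exposed to compound for about 90 hours before reading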
# [14] = biological target: T3, Delta-type opioid receptor; experiment: HTS Image-Based Screen for Agonists of the DOR Receptor. [Related pubchem assays (depositor defined):AID1777, AID1786, AID2133]; type: functional
# [15] = THP-1 cell cytotoxicity, dose response, cytotoxicity control for non-replicating M. tuberculosis project (AID 489025); type: functional
# [16] = Shn3 3'UTR reporter inhibitors, dose response, cell-based, Clone20 osteoblasts, firefly luciferase, cherry-picked (AID 624132); type: functional;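 also: firefly luciferase luminescence from reporter carrying the Shn3 3'UTR in osteoblasts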
# [17] = inhibitors of intracellular T. cruzi replication, confirmation, NIH3T3 host cells, beta-gal luminescence (AID 2044); type: functional, cell-based;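 also: intracellular parasites grown in NIH/3T3 mouse fibroblasts as host cells; luminescent beta-galactosidase reporter signal from transgenic T. cruzi replicating inside host cells; inhibitors lower the luminescence signal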
# [18] = biological target: T5, Microphthalmia-associated transcription factor (Homo sapiens, UniProt O75030); experiment: TRPM1 promoter luciferase signal decrease, dose response, MITF inhibitor project, cell-based, SK-MEL-5, cherry-picked, set 3 (AID 493073); type: functional
# T5 sequence (O75030 whole entry): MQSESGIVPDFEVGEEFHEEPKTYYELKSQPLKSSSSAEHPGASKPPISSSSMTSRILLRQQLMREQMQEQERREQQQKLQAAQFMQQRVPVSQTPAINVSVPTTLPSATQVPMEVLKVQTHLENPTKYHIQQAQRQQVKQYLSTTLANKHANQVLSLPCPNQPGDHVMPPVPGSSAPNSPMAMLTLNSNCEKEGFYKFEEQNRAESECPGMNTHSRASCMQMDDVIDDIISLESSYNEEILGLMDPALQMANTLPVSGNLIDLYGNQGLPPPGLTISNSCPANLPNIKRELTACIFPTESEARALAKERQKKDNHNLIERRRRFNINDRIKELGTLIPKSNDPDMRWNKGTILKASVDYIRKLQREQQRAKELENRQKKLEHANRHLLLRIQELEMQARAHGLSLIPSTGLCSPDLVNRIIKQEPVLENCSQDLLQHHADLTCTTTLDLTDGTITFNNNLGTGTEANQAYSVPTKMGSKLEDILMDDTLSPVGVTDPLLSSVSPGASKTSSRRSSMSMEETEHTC
# Caspase-3 = biological target: T6, Caspase-3 (Homo sapiens, UniProt P42574); experiment: SAR Analysis of small molecule inhibitors of Sentrin-specific proteases (SENPs) using a Caspase-3 Selectivity assay. [Related pubchem assays (depositor defined):AID2540, AID2599, AID434973, AID489001]; type: functional
# T6 sequence (P42574 whole entry): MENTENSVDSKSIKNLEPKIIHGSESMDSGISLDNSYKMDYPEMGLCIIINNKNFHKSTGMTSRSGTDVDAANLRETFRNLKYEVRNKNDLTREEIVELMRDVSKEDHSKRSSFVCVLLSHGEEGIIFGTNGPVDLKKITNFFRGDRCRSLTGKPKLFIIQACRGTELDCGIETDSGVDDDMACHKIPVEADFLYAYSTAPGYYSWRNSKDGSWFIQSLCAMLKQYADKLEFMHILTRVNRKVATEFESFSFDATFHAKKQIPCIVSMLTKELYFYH
# [19] = biological target: T7, Sentrin-specific protease 8 (Homo sapiens, UniProt Q96LD8); experiment: SENP8 protease inhibitors, SAR follow-up, biochemical, luminescence (AID 504501); type: functional
# T7 sequence (Q96LD8 whole entry): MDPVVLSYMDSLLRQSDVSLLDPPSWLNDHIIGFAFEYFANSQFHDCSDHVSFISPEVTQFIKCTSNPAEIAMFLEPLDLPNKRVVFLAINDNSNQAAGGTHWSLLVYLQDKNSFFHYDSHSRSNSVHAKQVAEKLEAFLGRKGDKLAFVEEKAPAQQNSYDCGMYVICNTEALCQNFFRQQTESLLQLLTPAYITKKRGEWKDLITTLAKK
# [20] = biological target: T8, Sentrin-specific protease 7 (Homo sapiens, UniProt Q9BQF6); experiment: SENP7 protease inhibitors, SAR follow-up, biochemical, luminescence (AID 504497); type: functional
# T8 sequence (Q9BQF6 whole entry): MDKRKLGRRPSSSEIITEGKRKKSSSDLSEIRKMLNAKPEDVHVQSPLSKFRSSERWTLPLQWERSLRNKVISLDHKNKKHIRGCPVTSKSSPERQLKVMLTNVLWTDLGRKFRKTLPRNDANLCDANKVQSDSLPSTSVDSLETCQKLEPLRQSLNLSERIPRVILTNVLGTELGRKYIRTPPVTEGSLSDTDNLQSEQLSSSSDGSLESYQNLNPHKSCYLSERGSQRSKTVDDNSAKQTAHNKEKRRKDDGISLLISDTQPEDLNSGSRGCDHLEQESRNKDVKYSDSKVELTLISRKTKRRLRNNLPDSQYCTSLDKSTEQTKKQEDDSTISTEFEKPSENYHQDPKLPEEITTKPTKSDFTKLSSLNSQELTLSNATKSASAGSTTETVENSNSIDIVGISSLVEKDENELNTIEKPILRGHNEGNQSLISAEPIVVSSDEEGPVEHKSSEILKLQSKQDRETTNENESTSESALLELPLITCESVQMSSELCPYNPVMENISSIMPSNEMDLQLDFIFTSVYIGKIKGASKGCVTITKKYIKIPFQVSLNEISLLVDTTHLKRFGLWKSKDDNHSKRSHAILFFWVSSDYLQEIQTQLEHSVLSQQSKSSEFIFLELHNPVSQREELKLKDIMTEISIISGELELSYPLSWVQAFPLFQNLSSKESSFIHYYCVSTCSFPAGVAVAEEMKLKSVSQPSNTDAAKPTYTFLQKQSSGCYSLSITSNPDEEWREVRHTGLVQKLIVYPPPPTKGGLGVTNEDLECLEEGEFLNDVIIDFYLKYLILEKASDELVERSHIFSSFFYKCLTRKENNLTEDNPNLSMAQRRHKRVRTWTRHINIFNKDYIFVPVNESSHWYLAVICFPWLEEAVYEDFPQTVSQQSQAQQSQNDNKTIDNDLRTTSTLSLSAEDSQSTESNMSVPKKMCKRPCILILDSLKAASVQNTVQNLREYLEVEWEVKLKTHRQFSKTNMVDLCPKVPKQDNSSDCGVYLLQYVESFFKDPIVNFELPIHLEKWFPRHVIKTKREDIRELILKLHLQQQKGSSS
# [21] = biological target: T9, Sentrin-specific protease 6 (Homo sapiens, UniProt Q9GZR1); experiment: SAR Analysis of small molecule inhibitors of Sentrin-specific protease 6 (SENP6) using a Luminescent assay. [Related pubchem assays (depositor defined):AID2582, AID2599]; type: functional
# T9 sequence (Q9GZR1 whole entry): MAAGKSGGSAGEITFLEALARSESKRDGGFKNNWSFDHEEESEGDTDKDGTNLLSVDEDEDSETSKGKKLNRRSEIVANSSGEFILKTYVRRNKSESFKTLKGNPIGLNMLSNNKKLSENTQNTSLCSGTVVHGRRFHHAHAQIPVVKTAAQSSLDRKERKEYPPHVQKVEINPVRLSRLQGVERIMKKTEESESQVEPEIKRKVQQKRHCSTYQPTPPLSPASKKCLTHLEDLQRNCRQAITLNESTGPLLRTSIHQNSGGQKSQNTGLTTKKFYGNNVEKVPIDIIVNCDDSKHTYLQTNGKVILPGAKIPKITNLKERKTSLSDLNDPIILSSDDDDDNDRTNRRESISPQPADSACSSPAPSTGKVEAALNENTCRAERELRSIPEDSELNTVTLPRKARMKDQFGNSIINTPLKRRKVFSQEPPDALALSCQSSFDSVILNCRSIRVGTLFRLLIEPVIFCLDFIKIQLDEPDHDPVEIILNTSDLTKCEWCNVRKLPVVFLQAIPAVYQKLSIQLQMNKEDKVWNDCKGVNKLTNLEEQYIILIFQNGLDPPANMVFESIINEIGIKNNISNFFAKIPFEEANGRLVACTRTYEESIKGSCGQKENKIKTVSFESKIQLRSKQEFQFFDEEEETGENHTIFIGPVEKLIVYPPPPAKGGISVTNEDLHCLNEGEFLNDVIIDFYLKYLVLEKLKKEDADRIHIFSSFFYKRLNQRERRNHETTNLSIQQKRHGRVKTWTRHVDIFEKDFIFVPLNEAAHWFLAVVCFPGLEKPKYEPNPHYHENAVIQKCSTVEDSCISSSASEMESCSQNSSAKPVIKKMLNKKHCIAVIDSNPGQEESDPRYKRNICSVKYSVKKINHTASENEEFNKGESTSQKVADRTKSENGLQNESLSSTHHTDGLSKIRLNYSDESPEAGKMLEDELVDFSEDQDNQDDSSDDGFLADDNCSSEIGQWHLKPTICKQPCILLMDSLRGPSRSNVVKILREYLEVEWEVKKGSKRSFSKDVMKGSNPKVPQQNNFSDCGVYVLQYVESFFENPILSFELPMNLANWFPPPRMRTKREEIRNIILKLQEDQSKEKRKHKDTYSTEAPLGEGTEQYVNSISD
# T1 sequence (P41145 whole entry, the tested form may be a part): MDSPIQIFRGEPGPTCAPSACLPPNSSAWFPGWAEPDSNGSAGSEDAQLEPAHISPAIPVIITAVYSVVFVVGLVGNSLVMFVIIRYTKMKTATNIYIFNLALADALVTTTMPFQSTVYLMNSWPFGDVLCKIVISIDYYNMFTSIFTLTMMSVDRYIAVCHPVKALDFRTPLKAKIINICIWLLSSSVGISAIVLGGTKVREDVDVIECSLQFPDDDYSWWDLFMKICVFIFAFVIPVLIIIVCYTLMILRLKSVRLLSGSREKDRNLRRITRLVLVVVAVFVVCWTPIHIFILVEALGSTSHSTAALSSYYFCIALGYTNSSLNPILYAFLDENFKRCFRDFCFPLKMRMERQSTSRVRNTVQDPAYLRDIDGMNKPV
# T2 sequence (P49327 whole entry, the tested form may be a part): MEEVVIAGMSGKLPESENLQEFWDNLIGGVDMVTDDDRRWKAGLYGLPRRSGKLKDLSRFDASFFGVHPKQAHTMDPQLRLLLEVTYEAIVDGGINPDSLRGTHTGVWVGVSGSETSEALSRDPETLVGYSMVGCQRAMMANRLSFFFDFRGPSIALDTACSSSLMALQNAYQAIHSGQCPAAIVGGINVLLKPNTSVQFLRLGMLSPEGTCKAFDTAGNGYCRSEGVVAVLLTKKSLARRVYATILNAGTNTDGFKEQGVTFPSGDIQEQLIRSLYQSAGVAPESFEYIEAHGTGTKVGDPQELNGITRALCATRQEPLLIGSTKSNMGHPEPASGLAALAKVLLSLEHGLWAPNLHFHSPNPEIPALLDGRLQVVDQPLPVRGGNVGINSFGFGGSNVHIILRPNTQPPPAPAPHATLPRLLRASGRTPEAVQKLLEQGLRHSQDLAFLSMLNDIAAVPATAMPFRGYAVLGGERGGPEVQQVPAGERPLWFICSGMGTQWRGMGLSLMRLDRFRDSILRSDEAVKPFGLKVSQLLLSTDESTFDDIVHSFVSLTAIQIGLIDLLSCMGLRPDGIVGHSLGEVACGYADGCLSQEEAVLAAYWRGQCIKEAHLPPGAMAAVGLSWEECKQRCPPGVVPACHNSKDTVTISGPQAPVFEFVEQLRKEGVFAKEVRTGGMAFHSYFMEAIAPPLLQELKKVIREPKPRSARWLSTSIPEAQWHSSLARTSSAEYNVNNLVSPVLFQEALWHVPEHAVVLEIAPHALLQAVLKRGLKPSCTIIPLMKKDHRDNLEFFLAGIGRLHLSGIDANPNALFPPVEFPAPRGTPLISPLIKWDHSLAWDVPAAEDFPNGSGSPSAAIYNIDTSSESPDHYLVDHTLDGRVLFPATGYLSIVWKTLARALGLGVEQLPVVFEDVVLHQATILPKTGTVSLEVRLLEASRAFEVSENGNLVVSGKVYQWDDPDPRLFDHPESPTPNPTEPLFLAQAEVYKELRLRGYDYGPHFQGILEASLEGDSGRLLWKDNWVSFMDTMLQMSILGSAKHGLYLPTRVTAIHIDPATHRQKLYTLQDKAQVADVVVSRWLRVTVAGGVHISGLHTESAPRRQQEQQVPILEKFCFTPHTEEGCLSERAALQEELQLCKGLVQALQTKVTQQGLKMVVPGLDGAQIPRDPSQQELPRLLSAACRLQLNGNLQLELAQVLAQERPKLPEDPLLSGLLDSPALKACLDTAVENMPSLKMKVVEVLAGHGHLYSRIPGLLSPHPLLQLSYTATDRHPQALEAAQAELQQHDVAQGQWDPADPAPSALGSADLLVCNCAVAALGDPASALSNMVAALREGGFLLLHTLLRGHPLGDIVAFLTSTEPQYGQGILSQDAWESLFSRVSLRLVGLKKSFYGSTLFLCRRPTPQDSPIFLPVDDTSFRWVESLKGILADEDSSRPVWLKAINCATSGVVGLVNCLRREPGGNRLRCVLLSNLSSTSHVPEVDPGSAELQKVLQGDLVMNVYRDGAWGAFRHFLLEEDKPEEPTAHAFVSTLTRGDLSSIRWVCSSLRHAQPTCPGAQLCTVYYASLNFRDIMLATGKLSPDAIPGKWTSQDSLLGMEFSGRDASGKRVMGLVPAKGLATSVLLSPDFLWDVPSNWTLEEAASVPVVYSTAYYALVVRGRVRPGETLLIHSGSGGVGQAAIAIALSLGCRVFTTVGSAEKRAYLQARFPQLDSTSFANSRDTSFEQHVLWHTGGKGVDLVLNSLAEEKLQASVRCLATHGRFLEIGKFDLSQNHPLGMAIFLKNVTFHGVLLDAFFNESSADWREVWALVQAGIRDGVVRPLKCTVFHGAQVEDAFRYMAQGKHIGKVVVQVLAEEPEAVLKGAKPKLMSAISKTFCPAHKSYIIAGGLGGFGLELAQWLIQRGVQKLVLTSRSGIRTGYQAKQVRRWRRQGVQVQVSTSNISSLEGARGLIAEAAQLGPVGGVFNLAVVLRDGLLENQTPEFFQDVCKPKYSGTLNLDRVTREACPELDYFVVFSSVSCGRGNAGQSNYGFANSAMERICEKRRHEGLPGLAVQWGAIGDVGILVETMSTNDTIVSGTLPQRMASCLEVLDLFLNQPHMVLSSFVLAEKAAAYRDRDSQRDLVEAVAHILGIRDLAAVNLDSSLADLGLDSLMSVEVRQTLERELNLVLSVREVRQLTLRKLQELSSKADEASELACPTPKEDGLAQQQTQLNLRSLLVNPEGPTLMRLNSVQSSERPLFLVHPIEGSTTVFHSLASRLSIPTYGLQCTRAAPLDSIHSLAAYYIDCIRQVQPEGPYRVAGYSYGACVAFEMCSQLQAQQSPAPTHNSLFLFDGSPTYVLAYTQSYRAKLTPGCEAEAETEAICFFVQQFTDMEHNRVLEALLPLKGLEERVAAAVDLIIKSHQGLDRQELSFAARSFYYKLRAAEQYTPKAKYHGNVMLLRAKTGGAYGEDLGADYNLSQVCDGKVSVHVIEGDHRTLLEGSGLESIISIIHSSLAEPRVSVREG
# T3 sequence (P41143 whole entry, the tested form may be a part): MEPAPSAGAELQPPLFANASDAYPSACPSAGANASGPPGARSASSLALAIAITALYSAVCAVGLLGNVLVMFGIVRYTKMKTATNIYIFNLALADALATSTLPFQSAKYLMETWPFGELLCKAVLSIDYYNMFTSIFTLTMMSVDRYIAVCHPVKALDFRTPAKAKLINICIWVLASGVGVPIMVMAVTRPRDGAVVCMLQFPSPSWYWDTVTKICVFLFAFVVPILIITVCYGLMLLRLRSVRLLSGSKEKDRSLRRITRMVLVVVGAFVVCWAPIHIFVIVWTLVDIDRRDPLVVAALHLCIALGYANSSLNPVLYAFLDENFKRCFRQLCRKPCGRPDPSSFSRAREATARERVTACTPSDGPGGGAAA
# Sequence of Beta Lactamase (Q932Y6 whole entry): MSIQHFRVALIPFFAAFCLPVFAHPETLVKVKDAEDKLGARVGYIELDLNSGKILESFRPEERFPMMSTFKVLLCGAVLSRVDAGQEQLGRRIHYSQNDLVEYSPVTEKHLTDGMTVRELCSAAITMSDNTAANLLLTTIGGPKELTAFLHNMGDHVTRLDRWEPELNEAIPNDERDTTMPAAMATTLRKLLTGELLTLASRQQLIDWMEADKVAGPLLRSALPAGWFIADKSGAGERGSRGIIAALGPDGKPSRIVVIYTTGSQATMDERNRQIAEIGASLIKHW
# Sequence of Beta-galactosidase (Q8VNN2 whole entry): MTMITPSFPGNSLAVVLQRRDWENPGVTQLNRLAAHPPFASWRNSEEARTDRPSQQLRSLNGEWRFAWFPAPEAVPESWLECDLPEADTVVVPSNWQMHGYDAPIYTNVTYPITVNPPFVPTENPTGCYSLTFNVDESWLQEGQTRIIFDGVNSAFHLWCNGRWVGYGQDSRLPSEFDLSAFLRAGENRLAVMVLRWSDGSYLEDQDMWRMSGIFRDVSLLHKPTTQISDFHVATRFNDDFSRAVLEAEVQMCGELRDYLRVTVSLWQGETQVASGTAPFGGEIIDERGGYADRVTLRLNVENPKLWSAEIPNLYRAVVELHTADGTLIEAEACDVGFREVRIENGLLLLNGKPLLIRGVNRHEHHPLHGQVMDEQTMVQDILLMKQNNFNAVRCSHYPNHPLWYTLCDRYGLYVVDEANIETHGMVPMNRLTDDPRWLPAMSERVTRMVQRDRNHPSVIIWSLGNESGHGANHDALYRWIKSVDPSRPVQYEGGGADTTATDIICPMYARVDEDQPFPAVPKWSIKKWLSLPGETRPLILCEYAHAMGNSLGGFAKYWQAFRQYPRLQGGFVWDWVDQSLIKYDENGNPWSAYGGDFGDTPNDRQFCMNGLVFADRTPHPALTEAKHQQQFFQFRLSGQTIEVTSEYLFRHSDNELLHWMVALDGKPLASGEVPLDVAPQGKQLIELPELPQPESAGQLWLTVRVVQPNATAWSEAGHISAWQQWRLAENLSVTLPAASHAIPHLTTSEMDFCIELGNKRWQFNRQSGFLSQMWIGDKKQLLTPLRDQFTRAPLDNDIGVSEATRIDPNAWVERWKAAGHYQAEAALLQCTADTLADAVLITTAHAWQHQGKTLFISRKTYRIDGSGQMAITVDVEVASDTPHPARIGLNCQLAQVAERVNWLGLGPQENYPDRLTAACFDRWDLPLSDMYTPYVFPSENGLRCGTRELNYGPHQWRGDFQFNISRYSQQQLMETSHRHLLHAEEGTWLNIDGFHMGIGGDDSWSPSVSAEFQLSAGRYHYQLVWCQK
# Sequence of Mu-type opioid receptor (P35372 whole entry): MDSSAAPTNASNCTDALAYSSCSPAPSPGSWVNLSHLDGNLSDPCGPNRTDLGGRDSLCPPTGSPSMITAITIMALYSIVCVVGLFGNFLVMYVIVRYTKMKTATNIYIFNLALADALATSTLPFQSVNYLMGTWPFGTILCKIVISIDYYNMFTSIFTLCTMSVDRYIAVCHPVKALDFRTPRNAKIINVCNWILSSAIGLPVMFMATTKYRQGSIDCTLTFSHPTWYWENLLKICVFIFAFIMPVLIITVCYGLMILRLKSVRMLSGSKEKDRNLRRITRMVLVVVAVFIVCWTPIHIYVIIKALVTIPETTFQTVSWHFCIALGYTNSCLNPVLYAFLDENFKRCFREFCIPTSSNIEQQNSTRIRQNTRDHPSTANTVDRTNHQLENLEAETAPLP
smiles,measurement,setting,value
CC(=O)OCCNc1cc(Sc2nc3ccccc3[nH]2)c2nonc2c1[N+](=O)[O-],IC50,cells,5.83 µM (active)
same,IC50,[1],17.1 µM
same,IC50,Fatty acid synthase [2],2.59 µM (active)
same,AC50,[3],6.26 µM (active)
same,IC50,[4],> 32 µM (inactive)
same,IC50,CHO,3.06 µM (active)
same,IC50,[5],116 µM (active)
same,IC50,Fatty acid synthase [6],1.75 µM (active)
same,IC50,Beta Lactamase,10 µM (inactive)
same,IC50,[7],5.01 µM (active)
same,CC50,[8],12.4 µM (active)
same,EC50,Mu-type opioid receptor,> 32 µM (inactive)
same,CC50,[9],13.5 µM (active)
same,EC50,[10],4.64 µM (active)
same,AC50,[11],17.5 µM (active)
same,EC50,[12],4.91 µM (active)
same,EC50,Beta-galactosidase,> 31.5 µM (inactive)
same,EC50,[13],3.66 µM (active)
same,EC50,[14],> 32 µM (inactive)
same,CC50,[15],19.9 µM (active)
same,AC50,[16],1.86 µM (active)
same,EC50,[17],2.47 µM (active)
same,AC50,[18],11.5 µM (active)
C(=N\Nc1cc(N2CCCC2)nc(N2CCCC2)n1)/c1ccccc1,IC50,Caspase-3,> 99 µM (inactive)
same,IC50,[19],> 99 µM (inactive)
same,IC50,[20],89.9 µM (active)
same,IC50,[21],15.1 µM (active)
